Measured values from the NIST ThermoML archive (doi:10.1016/j.jct.2011.10.023).
± gives the expanded uncertainty stated by the source.

Settings: Liquid, Vibrating tube method

CCCCO [butan-1-ol]
mass density [kg/m3]
Settings	278.15 K	288.15 K	298.15 K	308.15 K	318.15 K	328.15 K	338.15 K	348.15 K	358.15 K
100 kPa	820.9 ± 2.4	813.5 ± 2.4	805.8 ± 2.4	798 ± 2.4	790.3 ± 2.4	782.3 ± 2.4	774 ± 2.4	765.6 ± 2.4	756.6 ± 2.4
1000 kPa	821.6 ± 2.4	814.1 ± 2.4	806.6 ± 2.4	798.8 ± 2.4	791.1 ± 2.4	783.1 ± 2.4	774.9 ± 2.4	766.3 ± 2.4	757.7 ± 2.4
5000 kPa	824.4 ± 2.4	817 ± 2.4	809.6 ± 2.4	802 ± 2.4	794.5 ± 2.4	786.7 ± 2.4	778.7 ± 2.4	770.5 ± 2.4	761.7 ± 2.4
10000 kPa	827.7 ± 2.4	820.5 ± 2.4	813.3 ± 2.4	805.9 ± 2.4	798.5 ± 2.4	790.9 ± 2.4	783.2 ± 2.4	775.3 ± 2.4	767 ± 2.4
15000 kPa	830.9 ± 2.4	823.9 ± 2.4	816.8 ± 2.4	809.5 ± 2.4	802.4 ± 2.4	795 ± 2.4	787.4 ± 2.4	779.8 ± 2.4	771.7 ± 2.4
20000 kPa	834 ± 2.4	827.2 ± 2.4	820.2 ± 2.4	813 ± 2.4	805.6 ± 2.4	798.8 ± 2.4	791.4 ± 2.4	784 ± 2.4	776.2 ± 2.4
25000 kPa	837 ± 2.4	830.3 ± 2.4	823.5 ± 2.4	816.4 ± 2.4	809.5 ± 2.4	802.4 ± 2.4	795.3 ± 2.4	788 ± 2.4	780.4 ± 2.4
30000 kPa	839.9 ± 2.4	833.2 ± 2.4	826.6 ± 2.4	819.7 ± 2.4	812.9 ± 2.4	806 ± 2.4	799 ± 2.4	791.8 ± 2.4	784.4 ± 2.4
35000 kPa	842.7 ± 2.4	836.2 ± 2.4	829.6 ± 2.4	822.8 ± 2.4	816.1 ± 2.4	809.4 ± 2.4	802.5 ± 2.4	795.6 ± 2.4	788.3 ± 2.4
40000 kPa	845.4 ± 2.4	839 ± 2.4	832.6 ± 2.4	825.9 ± 2.4	819.3 ± 2.4	812.7 ± 2.4	805.9 ± 2.4	799.1 ± 2.4	792 ± 2.4
45000 kPa	848.1 ± 2.4	841.7 ± 2.4	835.4 ± 2.4	828.8 ± 2.4	822.4 ± 2.4	815.8 ± 2.4	809.2 ± 2.4	802.5 ± 2.4	795.5 ± 2.4
50000 kPa	850.7 ± 2.4	844.4 ± 2.4	838.2 ± 2.4	831.7 ± 2.4	825.3 ± 2.4	818.9 ± 2.4	812.4 ± 2.4	805.8 ± 2.4	799 ± 2.4
55000 kPa	853.2 ± 2.4	846.8 ± 2.4	840.9 ± 2.4	834.5 ± 2.4	828.2 ± 2.4	821.8 ± 2.4	815.4 ± 2.4	809 ± 2.4	802.3 ± 2.4
60000 kPa	855.6 ± 2.4	849.4 ± 2.4	843.3 ± 2.4	837 ± 2.4	830.9 ± 2.4	824.6 ± 2.4	818.4 ± 2.4	811.9 ± 2.5	805.3 ± 2.5

CCCO [propan-1-ol]
mass density [kg/m3]
Settings	278.15 K	288.15 K	298.15 K	308.15 K	318.15 K	328.15 K	338.15 K	348.15 K	358.15 K
100 kPa	815.7 ± 2.4	807.8 ± 2.4	799.8 ± 2.4	791.6 ± 2.4	783.4 ± 2.4	775 ± 2.4	766.3 ± 2.4	757.2 ± 2.4	747.7 ± 2.4
1000 kPa	816.4 ± 2.4	808.5 ± 2.4	800.5 ± 2.4	792.4 ± 2.4	784.2 ± 2.4	775.9 ± 2.4	767.2 ± 2.4	758.3 ± 2.4	748.8 ± 2.4
5000 kPa	819.4 ± 2.4	811.6 ± 2.4	803.8 ± 2.4	795.8 ± 2.4	787.9 ± 2.4	779.7 ± 2.4	771.3 ± 2.4	762.6 ± 2.4	753.5 ± 2.4
10000 kPa	822.8 ± 2.4	815.3 ± 2.4	807.6 ± 2.4	800.1 ± 2.4	792.2 ± 2.4	784.2 ± 2.4	776.1 ± 2.4	767.7 ± 2.4	758.8 ± 2.4
15000 kPa	826.2 ± 2.4	818.9 ± 2.4	811.4 ± 2.4	803.8 ± 2.4	796.3 ± 2.4	788.5 ± 2.4	780.6 ± 2.4	772.5 ± 2.4	764 ± 2.4
20000 kPa	829.4 ± 2.4	822.3 ± 2.4	814.9 ± 2.4	807.5 ± 2.4	800.2 ± 2.4	792.6 ± 2.4	784.9 ± 2.4	777 ± 2.4	768.7 ± 2.4
25000 kPa	832.6 ± 2.4	825.5 ± 2.4	818.3 ± 2.4	811.1 ± 2.4	803.9 ± 2.4	796.5 ± 2.4	789 ± 2.4	781.3 ± 2.4	773.3 ± 2.4
30000 kPa	835.7 ± 2.4	828.7 ± 2.4	821.6 ± 2.4	814.5 ± 2.4	807.5 ± 2.4	800.2 ± 2.4	792.9 ± 2.4	785.4 ± 2.4	777.5 ± 2.4
35000 kPa	838.6 ± 2.4	831.8 ± 2.4	824.8 ± 2.4	817.8 ± 2.4	810.9 ± 2.4	803.8 ± 2.4	796.6 ± 2.4	789.3 ± 2.4	781.6 ± 2.5
40000 kPa	841.5 ± 2.4	834.7 ± 2.4	827.9 ± 2.4	821 ± 2.4	814.2 ± 2.4	807.2 ± 2.5	800.2 ± 2.5	793 ± 2.5	785.5 ± 2.5
45000 kPa	844.3 ± 2.4	837.6 ± 2.4	830.9 ± 2.4	824.1 ± 2.5	817.5 ± 2.5	810.6 ± 2.5	803.7 ± 2.5	796.6 ± 2.5	789.3 ± 2.5
50000 kPa	847.1 ± 2.4	840.4 ± 2.5	833.8 ± 2.5	827.1 ± 2.5	820.5 ± 2.5	813.8 ± 2.5	807 ± 2.5	800.1 ± 2.5	792.9 ± 2.5
55000 kPa	849.7 ± 2.5	843.1 ± 2.5	836.6 ± 2.5	830 ± 2.5	823.6 ± 2.5	816.9 ± 2.5	810.3 ± 2.5	803.5 ± 2.5	796.4 ± 2.5
60000 kPa	852.1 ± 2.5	845.6 ± 2.5	839.2 ± 2.5	832.7 ± 2.5	825.8 ± 2.5	819.8 ± 2.5	813.4 ± 2.5	806.5 ± 2.5	799.6 ± 2.5

CCCCCCCCCO [nonan-1-ol]
mass density [kg/m3]
Settings	278.15 K	288.15 K	298.15 K	308.15 K	318.15 K	328.15 K	338.15 K	348.15 K	358.15 K
100 kPa	836.9 ± 2.5	829.9 ± 2.5	823.2 ± 2.5	816.5 ± 2.5	809.8 ± 2.5	802.8 ± 2.5	795.7 ± 2.5	788.3 ± 2.5	780.9 ± 2.5
1000 kPa	837.4 ± 2.5	830.5 ± 2.5	823.7 ± 2.5	817.1 ± 2.5	810.4 ± 2.5	803.4 ± 2.5	796.4 ± 2.5	788.9 ± 2.5	781.6 ± 2.5
5000 kPa	839.7 ± 2.5	832.7 ± 2.5	826.3 ± 2.5	819.8 ± 2.5	813.2 ± 2.5	806.3 ± 2.5	799.4 ± 2.5	792.3 ± 2.5	785 ± 2.5
10000 kPa	842.5 ± 2.5	835.9 ± 2.5	829.4 ± 2.5	822.9 ± 2.5	816.5 ± 2.5	809.8 ± 2.5	803 ± 2.5	796.1 ± 2.5	789 ± 2.5
15000 kPa	845.1 ± 2.5	838.7 ± 2.5	832.3 ± 2.5	826 ± 2.5	819.7 ± 2.5	813.1 ± 2.5	806.5 ± 2.5	799.7 ± 2.5	792.9 ± 2.5
20000 kPa	847.8 ± 2.5	841.4 ± 2.5	835.1 ± 2.5	828.9 ± 2.5	822.7 ± 2.5	816.3 ± 2.5	809.8 ± 2.5	803.2 ± 2.5	796.5 ± 2.5
25000 kPa	850.3 ± 2.5	844 ± 2.5	837.9 ± 2.5	831.8 ± 2.5	825.6 ± 2.5	819.3 ± 2.5	813 ± 2.5	806.6 ± 2.5	799.9 ± 2.5
30000 kPa	852.8 ± 2.5	846.6 ± 2.5	840.5 ± 2.5	834.5 ± 2.5	828.5 ± 2.5	822.3 ± 2.5	816.1 ± 2.5	809.8 ± 2.5	803.3 ± 2.5
35000 kPa	855.3 ± 2.5	849.1 ± 2.5	843.1 ± 2.5	837.2 ± 2.5	831.3 ± 2.5	825.2 ± 2.5	819.1 ± 2.5	812.9 ± 2.5	806.6 ± 2.5
40000 kPa	857.6 ± 2.5	851.6 ± 2.5	845.7 ± 2.5	839.8 ± 2.5	834 ± 2.5	828 ± 2.5	822 ± 2.5	815.9 ± 2.5	809.7 ± 2.5
45000 kPa	859.9 ± 2.5	854 ± 2.5	848.1 ± 2.5	842.4 ± 2.5	836.6 ± 2.6	830.7 ± 2.6	824.8 ± 2.6	818.8 ± 2.6	812.8 ± 2.6
50000 kPa	862.2 ± 2.6	856.3 ± 2.6	850.5 ± 2.6	844.8 ± 2.6	839.2 ± 2.6	833.4 ± 2.6	827.6 ± 2.6	821.6 ± 2.6	815.7 ± 2.6
55000 kPa	864.4 ± 2.6	858.6 ± 2.6	852.9 ± 2.6	847.3 ± 2.6	841.7 ± 2.6	836 ± 2.6	830.2 ± 2.6	824.4 ± 2.6	818.6 ± 2.6
60000 kPa	866.4 ± 2.6	860.7 ± 2.6	855 ± 2.6	849.3 ± 2.6	844 ± 2.6	838.3 ± 2.6	832.7 ± 2.6	826.7 ± 2.6	821.2 ± 2.6
